Reference: patent US7771978B2, “β1,4mannosyltransferases” (priority 2003, dated 2010)
Like-named read-outs stand apart in the source and are kept apart here.

B1: egghead: GDP-D-mannose: β-D-glucose-R 4-β-D-mannosyltransferase, SEQ ID NO. 1 (protein)
chain: MNSTTKHLLHCTLLITVIVTFEVFSGGIKIDENSFTLVDPWTEYGQLATVLLYLLRFLTLLTLPQVLFNFCGLVFYNAFPEKVVLKGSPLLAPFICIRVVTRGDFPDLVKTNVLRNMNTCLDTGLENFLIEVVTDKAVNLSQHRRIREIVVPKEYKTRTGALFKSRALQYCLEDNVNVLNDSDWIVHLDEETLLTENSVRGIINFVLDGKHPFGQGLITYANENVVNWLTTLADSFRVSDDMGKLRLQFKLFHKPLFSWKGSYVVTQVSAERSVSFDNGIDGSVAEDCFFAMRAFSQGYTFNFIEGEMYEKSPFTLLDFLQQRKRWLQGILLVVHSKMIPFKHKLLLGISVYSWVTMPLSTSNIIFAALYPIPCPNLVDFVCAFIAAINIYMYVFGVIKSFSLYRFGLFRFLACVLGAVCTIPVNVVIENVAVIWGLVGKKHKFYVVQKDVRVLETV
modifications: Drosophila melanogaster

Target: T1, Egghead β1-4-mannosyltransferase (Drosophila melanogaster, UniProt O01346)
T1 construct: a secreted version of egghead was prepared as described for the full length construct; made in house; host or cells: baculovirus-infected Sf9 and High Five insect cells (microsomal fractions)
T1 sequence (O01346 1-457): B1 chain
Experiment: Egghead mannosyltransferase enzyme assay with soluble acceptor and donor substrates (microsomal fractions)
Type: biochemical
Details: for effect of divalent cation salt on enzyme activity: addition of 5 to 10 mM; for acceptor substrate activity (in words): microsomal fractions of High Five cells; for Substrate specificities of Egghead β1-4-mannosyltransferase, activity at 1 mM: acceptor substrate 1 mM; for Substrate specificities of Egghead β1-4-mannosyltransferase, activity at 1 mM / Substrate specificities of Egghead β1-4-mannosyltransferase, activity at 5 mM: microsomes of pVL-Egghead infected High Five cells, GalNAc-T4 background subtracted; for Substrate specificities of Egghead β1-4-mannosyltransferase, activity at 5 mM: acceptor substrate 5 mM; for donor substrate utilisation by egghead (in words): donor sugar nucleotides tested under similar conditions
Description: Initial assays of activity included a screen with high concentrations of monosaccharide substrates and different donor substrates.
An expression construct of the full coding region of egghead was prepared by RT-PCR using D. melanogaster mRNA and the sense primer Egh001 (5′-[…]-3′, SEQ ID NO: 4) with a BglII restriction site and the anti-sense primer Egh002 (5′-[…]-3′, SEQ ID NO: 5) with a XbaI restriction site. The resulting 1.1 Kb fragment was cloned into the BglII/XbaI sites of pVL1393 (PharMingen) and pVL1393-MYC. Furthermore an expression construct for a secreted version of egghead was prepared as described for the full length construct but using sense primer Egh003 (5′[…]-3′, SEQ ID NO: 6) with a BglII restriction site and the anti-sense primer Egh002. The resulting 1 Kb fragment was cloned into pAcGP67 Baculo-virus expression vector. Expression constructs pVL-egghead-full and pVL-egghead-Myc-full and pAcGP67-egghead-sol were co-transfected with Baculo-Gold™ DNA (Pharmingen) in Sf9 cells as described (12). Control constructs included pVL-GalNAc-T4-full (8) and pVL-brainiac-full (7). Standard enzyme assays were performed in 50 μl reaction mixtures containing 25 mM HEPES-KOH (pH 7.4), 10 mM MgCl2, 0.1% n-octylgalactoside (Sigma), and 100 μM GDP-[^14C]-Man (2,000 cpm/nmol) (Amersham), and varying concentration of acceptor substrates (purchased from Fluka, Merck, Sigma and Toronto Research Chemicals Inc; see Table I for structures). Assays with brainiac were carried out in the same reaction mixture except for addition of UDP-[^14C]GlcNAc (3,000 cpm/nmol) (Amersham) and MnCl2. Enzyme sources were microsomal fractions of baculo-virus infected Sf9 and High Five™ cells prepared essentially as described by Weis et al. (1998). Briefly, cells were lysed in lysis buffer (25 mM Tris-HCl pH 7.4, 250 mM Sucrose), after incubation 30 min on ice cells were homogenized and lysate centrifuged at 1000×G. Glycerol were added to 20% and membrane pellets were obtained by 100.000×g. Pellets were used at 10 mg/ml (Protein concentration determined by BCA, Pierce). Reaction products of soluble acceptors were quantified by chromatography on Dowex AG1-X8 (Sigma). Assays with glycosphingolipids included 5 mM 2-Acetamido-2-deoxy-D-Glucono-1,5-lactone (inhibitor of hexosaminidase activity), and products were purified on octadecyl-silica cartridges (Supelco) and analyzed by high performance thin-layer chromatography followed by autoradiography.

[1] = acceptor substrate, GDP-Man donor, read-out: apparent Km of acceptor substrate

Molecule | Substrate specificities of Egghead β1-4-mannosyltransferase, activity at 1 mM (GDP-Man donor) [nmol/h/mg] | Substrate specificities of Egghead β1-4-mannosyltransferase, activity at 5 mM (GDP-Man donor) [nmol/h/mg] | further results
C[C@H](CCC(=O)NCCC[N+](C)(C)CCCS(=O)(=O)[O-])[C@H]1CC[C@H]2[C@@H]3[C@H](O)C[C@@H]4C[C@H](O)CC[C@]4(C)[C@H]3C[C@H](O)[C@]12C [CHAPS] |  |  | effect of CHAPS on egghead activity (concentration not given, to a lesser extent than n-octylgalactoside): activated
[Ca+2].[Cl-].[Cl-] [CaCl2] |  |  | effect of divalent cation salt on enzyme activity: had no effect
O=C[C@H](O)[C@@H](O)[C@H](O)[C@H](O)CO [D-Glucose] |  |  | acceptor substrate activity (in words) (GDP-Man donor): marked increase in GDP-Man transferase activity
C[C@@H]1O[C@H](Oc2ccc([N+](=O)[O-])cc2)[C@@H](O)[C@H](O)[C@@H]1O [Fucβ1-pNph] | 0.0 | 0.0 | 
Nc1nc2c(ncn2[C@@H]2O[C@H](COP(=O)(O)OP(=O)(O)O[C@H]3O[C@H](CO)[C@@H](O)[C@H](O)[C@@H]3O)[C@@H](O)[C@H]2O)c(=O)[nH]1 [GDP-Man, GDP-mannose] |  |  | Km (donor substrate, with n-octyl-β-Glc acceptor substrate, read-out: apparent Km for GDP-Man): 58 ± 6.2 µM; donor substrate utilisation by egghead (in words): strict donor substrate specificity
CC(=O)N[C@H]1[C@H](Oc2ccc([N+](=O)[O-])cc2)O[C@H](CO)[C@H](O)[C@@H]1O [GalNAcβ1-pNph] | 0.0 |  | 
Cc1cc(=O)oc2cc(O[C@@H]3O[C@H](CO)[C@H](O)[C@H](O)[C@H]3O)ccc12 [Galβ1-MeUmb] | 0.0 |  | 
CCCCCCCCO[C@@H]1O[C@H](CO)[C@H](O)[C@H](O)[C@H]1O [Galβ1-n-Octyl] | 0.0 | 0.0 | 
O=[N+]([O-])c1ccc(O[C@@H]2O[C@H](CO)[C@H](O)[C@H](O)[C@H]2O)cc1 [Galβ1-pNph] | 0.0 |  | 
CC(=O)N[C@H]1[C@H](Oc2ccc3c(C)cc(=O)oc3c2)O[C@H](CO)[C@@H](O)[C@@H]1O [GlcNAcβ1-MeUmb] | 0.2 | 0.0 | 
CC(=O)N[C@H]1[C@H](Oc2ccc([N+](=O)[O-])cc2)O[C@H](CO)[C@@H](O)[C@@H]1O [GlcNAcβ1-pNph] | 0.0 |  | 
Cc1cc(=O)oc2cc(O[C@@H]3O[C@H](CO)[C@@H](O)[C@H](O)[C@H]3O)ccc12 [Glcα1-MeUmb] | 1.2 | 12.9 | 
CCCCCCCCO[C@H]1O[C@H](CO)[C@@H](O)[C@H](O)[C@H]1O [Glcα1-n-Octyl] | 3.6 | 6.5 | 
Cc1cc(=O)oc2cc(O[C@@H]3O[C@H](CO)[C@@H](O)[C@H](O)[C@H]3O)ccc12 [Glcβ1-MeUmb] | 330.0 | 611.4 | 
[2H]C([2H])([2H])C([2H])([2H])C([2H])([2H])C([2H])([2H])C([2H])([2H])C([2H])([2H])C([2H])([2H])C([2H])([2H])OC1([2H])O[C@]([2H])(C([2H])([2H])O)[C@@]([2H])(O)[C@]([2H])(O)[C@@]1([2H])O (stereo partly drawn) [Glcβ1-n-Octyl, n-octyl-β-glucoside] | 442.8 | 732.6 | 
CCCCCCCCOC1O[C@H](CO)[C@@H](O)[C@H](O)[C@H]1O (stereo partly drawn) [Glcβ1-n-Octyl, n-octyl-β-glucoside] |  |  | Km [1]: 670 ± 80 µM
O=[N+]([O-])c1ccc(O[C@@H]2O[C@H](CO)[C@@H](O)[C@H](O)[C@H]2O)cc1 [Glcβ1-pNph] | 378.6 | 561.4 | Km [1]: 1100 ± 300 µM
OC[C@H]1O[C@H](OCc2ccccc2)[C@@H](O)[C@@H](O)[C@@H]1O [Manα-1-Bzl] | 0.0 |  | 
CC(=O)N[C@H]1C(O)O[C@H](CO)[C@@H](O[C@@H]2O[C@H](CO)[C@@H](O)[C@H](O)[C@@H]2O)[C@@H]1O (some centres unmarked) [Manβ1-4GlcNAc] | 0.0 | 0.0 | acceptor substrate activity (in words) (GDP-Man donor): no activity
CCCCCCCCO[C@@H]1O[C@H](CO)[C@@H](O[C@@H]2O[C@H](CO)[C@@H](O)[C@H](O)[C@@H]2O)[C@H](O)[C@H]1O [Manβ1-4Glcβ1-n-Octyl] | 0.0 | 0.0 | acceptor substrate activity (in words) (GDP-Man donor): no activity
Cc1cc(=O)oc2cc(O[C@@H]3O[C@H](CO)[C@@H](O)[C@H](O)[C@@H]3O)ccc12 [Manβ1-MeUmb] | 97 | 171.4 | 
O=[N+]([O-])c1ccc(O[C@@H]2O[C@H](CO)[C@@H](O)[C@H](O)[C@@H]2O)cc1 [Manβ1-pNph] | 98.6 | 182.9 | Km [1]: 2300 ± 500 µM
[Cl-].[Cl-].[Mg+2] [MgCl2] |  |  | effect of divalent cation salt on enzyme activity: activated
[Cl][Mn][Cl] [MnCl2] |  |  | effect of divalent cation salt on enzyme activity: activated
CC(=O)N[C@H]1[C@@H](OP(=O)(O)OP(=O)(O)OC[C@H]2O[C@@H](n3ccc(=O)[nH]c3=O)[C@H](O)[C@@H]2O)O[C@H](CO)[C@H](O)[C@@H]1O [UDP-GalNAc] |  |  | donor substrate utilisation by egghead (in words): did not utilize
CC(=O)N[C@H]1[C@@H](OP(=O)(O)OP(=O)(O)OC[C@H]2O[C@@H](n3ccc(=O)[nH]c3=O)[C@H](O)[C@@H]2O)O[C@H](CO)[C@@H](O)[C@@H]1O [UDP-GlcNAc] |  |  | donor substrate utilisation by egghead (in words): did not utilize
Cc1cc(=O)oc2cc(O[C@@H]3OC[C@@H](O)[C@H](O)[C@H]3O)ccc12 [Xylβ1-MeUmb] | 0.0 |  | 
CCCCCCCCO[C@@H]1O[C@H](CO)[C@H](O)[C@H](O)[C@H]1O [n-octylgalactoside] |  |  | effect of n-octylgalactoside on egghead activity (3.4 mM (0.1%), microsomal membranes): activated
Triton X-100 |  |  | effect of detergent on egghead activity (detergent at 0.1%, microsomal membranes): inhibited
B1 |  |  | pH optimum of egghead activity (microsomal membranes): 7-8 pH
